Reference: PMC6419571, “Discovery and lead optimisation of a potent, selective and orally bioavailable RARβ agonist for the potential treatment of nerve injury” (Bioorganic & Medicinal Chemistry Letters, 2019)
pEC50, pIC50: −log10 of the molar value.

Assays:
RARα = biological target: T1, RARα (Mus musculus, UniProt P11416); assay: RAR alpha transactivation assay (gal4-RAR LBD fusion, luciferase reporter, COS-7 cells); assay type: cell-based; details: mouse RAR ligand binding domain; usually three experiments; read-out: α EC50
T1 construct: expressed in transfected cells; host or cells: COS-7
T1 sequence (P11416 183-417 limits assumed): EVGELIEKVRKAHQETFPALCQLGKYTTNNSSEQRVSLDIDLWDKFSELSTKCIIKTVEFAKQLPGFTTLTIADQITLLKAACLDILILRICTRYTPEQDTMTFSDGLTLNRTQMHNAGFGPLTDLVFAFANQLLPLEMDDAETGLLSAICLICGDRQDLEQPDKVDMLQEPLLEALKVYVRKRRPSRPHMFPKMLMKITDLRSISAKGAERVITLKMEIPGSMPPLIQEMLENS
Experimental: (§1) Compounds were tested in transactivation assays at the RAR α, β and γ receptors.
(§2) Transactivation assays for RAR alpha, beta and gamma receptors:
(§3) Transcriptional transactivation assays have been performed with gal4 fusion receptor constructs, created using each of the mouse RAR ligand-binding domains, co-transfected with the pFR-luc (Stratagene) reporter construct in COS-7 cells.
(§4) Briefly, on day one, 96 well plates were seeded with 8000 cells per well then left to recover overnight. On day two, the cells were co-transfected with 100ng of reporter plasmid and 10ng of the appropriate receptor plasmid per well using lipofectamine (Invitrogen). On day three, the lipofectamine containing media was replaced by a DMEM without phenol red, followed by the addition of novel compounds dissolved in 1µl of DMSO to each well’s 100µl total volume. Finally, on day four, the cells were lysed and their luciferase substrate was provided by the BrightGlo reagent (Promega), the plates were then read on the MicroBeta TriLux (Perkin Elmer).
(§5) Data for test compounds are quoted as EC50 values. Where replicate data has been generated the data are quoted as the mean EC50 from the separate experiments.

RARβ = biological target: T2, RARβ (Mus musculus, UniProt P22605); assay: RAR beta transactivation assay (gal4-RAR LBD fusion, luciferase reporter, COS-7 cells); assay type: cell-based
T2 construct: expressed in transfected cells; host or cells: COS-7
T2 sequence (P22605 210-444 limits assumed): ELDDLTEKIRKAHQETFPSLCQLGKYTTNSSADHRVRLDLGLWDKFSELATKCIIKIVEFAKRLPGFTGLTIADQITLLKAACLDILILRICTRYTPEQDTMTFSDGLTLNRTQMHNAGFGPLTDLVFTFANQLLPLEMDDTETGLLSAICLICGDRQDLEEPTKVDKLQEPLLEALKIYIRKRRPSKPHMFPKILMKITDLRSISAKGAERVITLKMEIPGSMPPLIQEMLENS
Experimental: as §1, §2, §3, §4, §5

[1] = LogD by shake flask method; assay type: physicochemical; details: pH 7.4
[2] = Bi-directional permeability in MDR1-MDCK cell line; assay type: in vitro ADME; details: dog; MDR1-MDCK cell line
From the text: (§6) The potential drug candidate 10 has excellent physico-chemical properties.

MDR1-MDCK cell line = assay: Bi-directional permeability in MDR1-MDCK cell line; assay type: in vitro ADME
From the text: as §6

P-gp (MDR1) = assay: Bi-directional permeability in MDR1-MDCK cell line; assay type: in vitro ADME; details: dog; MDR1-MDCK cell line, bi-directional; read-out: MDCK asymmetry ratio (efflux ratio)
From the text: as §6

Cyp450 1A2 = biological target: T3, Cyp450 1A2 (Homo sapiens, UniProt P05177); assay: Cyp450 inhibition, 1A2; assay type: in vitro ADME; details: isoform 1A2
T3 sequence (P05177 1-516): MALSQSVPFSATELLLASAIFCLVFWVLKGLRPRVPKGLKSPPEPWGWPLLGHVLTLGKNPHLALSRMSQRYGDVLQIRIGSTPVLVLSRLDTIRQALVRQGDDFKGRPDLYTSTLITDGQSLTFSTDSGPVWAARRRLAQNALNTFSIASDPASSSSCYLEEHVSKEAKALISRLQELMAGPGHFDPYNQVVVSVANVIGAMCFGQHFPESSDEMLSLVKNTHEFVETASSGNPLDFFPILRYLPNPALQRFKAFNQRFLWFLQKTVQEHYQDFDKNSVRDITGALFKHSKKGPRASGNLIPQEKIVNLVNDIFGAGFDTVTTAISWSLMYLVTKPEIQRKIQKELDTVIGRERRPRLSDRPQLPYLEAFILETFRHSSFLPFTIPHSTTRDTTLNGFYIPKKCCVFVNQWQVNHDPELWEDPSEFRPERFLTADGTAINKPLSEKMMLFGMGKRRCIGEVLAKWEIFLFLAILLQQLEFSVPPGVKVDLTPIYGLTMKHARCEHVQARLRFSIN

Pharmacokinetics in dog = assay type: in vivo; set-up: Volume distribution ss: unit not given here

In the case of Cc1ccc(C)c2oc(-c3nc(-c4ccc(C(=O)O)cc4)no3)cc12 [Compound 10, 4-(5-(4,7-dimethylbenzofuran-2-yl)-1,2,4-oxadiazol-3-yl)benzoic acid], the pEC50 (RARα) was 7.59, the “Fold selectivity for β over α” value (RARβ; EC50 ratio of α to β, mouse, Tables 1 and 4) was 13 and the “Fold selectivity for β over γ” value (RARβ; EC50 ratio of γ to β, mouse) was 5.6. The “agonist behaviour (full/partial) relative to ATRA” value (RARβ; maximum upper asymptote within 20% of that found for ATRA) was “full agonist”, the pEC50 (RARβ; mouse RAR ligand binding domain, usually three experiments, read-out: β EC50) was 8.72 and the logD [1] was 2.8. The Papp [2] was 28 ×10⁻⁶ cm/s, the “permeability (in words)” value (MDR1-MDCK cell line) was “good permeability” and the “MDCK asymmetry ratio (efflux ratio)” value (MDR1-MDCK cell line; MDR1-MDCK cell line, bi-directional) was “close to unity”. The efflux ratio (P-gp (MDR1)) was 0.8, the pIC50 (Cyp450 1A2) was under 4.60 and the t1/2 (Pharmacokinetics in dog) was 2.5 h. The clearance (Pharmacokinetics in dog; blood, iv dose 0.5 mg/kg) was 1.1 mL/min/kg, the bioavailability (Pharmacokinetics in dog; in vivo, po, 3 mg/kg, dogs) was over 40% and the Volume distribution ss (Pharmacokinetics in dog; iv dose 0.5 mg/kg) was 0.23. For the same compound, the Fraction absorbed (Pharmacokinetics in dog; oral 3 mg/kg vs iv 0.5 mg/kg) was 45% and the Tmax (Pharmacokinetics in dog; oral dose 3 mg/kg) was 1.0 h.
